Results reported in patent publication US7300946B2, “N-(substituted arylmethyl)-4-(disubstituted methyl) piperidines and pyridines” (Bayer CropScience AG, priority 2002, dated 2007).

System: tobacco budworm (Heliothis virescens [Fabricius])
Experiment: surface-treated diet test against the tobacco budworm
Type: in vivo
Settings: tobacco budworm second instar larvae, surface-treated diet, 0.25 millimoles of candidate insecticide on the surface of the diet, five-day exposure; for Percent Mortality: compared to total number of insects infested; for Percent Growth Inhibition: inhibition of insect weight relative to untreated controls
Method in brief: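 Wheat germ artificial diet surface-treated with 40 µL of 50 mM DMSO stock diluted 1:7 in 1:1 water/acetone (0.25 millimolar on diet), or sub-multiples for rate tests. One second-instar larva per well, 25° C, 60% RH, 5 days; percent weight inhibition vs DMSO controls and percent mortality.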

SMILES | Percent Mortality [%] | Percent Growth Inhibition [%]
COc1ccc(C(=O)Nc2ccc(CN3CCC(C(OC(=O)Nc4cc(F)cc(F)c4)c4ccc(C(F)(F)F)cc4)CC3)cc2)cc1 (centres unmarked) [Compound 554] | 0 | 99
O=C(Nc1ccc(F)cc1)OC(c1ccc(C(F)(F)F)cc1)C1CCN(Cc2ccc(-n3cccn3)cc2)CC1 (centres unmarked) [Compound 555] | 33 | 100
O=C(Nc1cc(F)cc(F)c1)OC(c1ccc(C(F)(F)F)cc1)C1CCN(Cc2ccc(-n3cccn3)cc2)CC1 (centres unmarked) [Compound 556] | 100 | 100
O=C(Nc1ccc(F)cc1)OC(c1ccc(C(F)(F)F)cc1)C1CCN(Cc2ccc(-n3cncn3)cc2)CC1 (centres unmarked) [Compound 557] | 0 | 86
O=C(Nc1cc(F)cc(F)c1)OC(c1ccc(C(F)(F)F)cc1)C1CCN(Cc2ccc(-n3cncn3)cc2)CC1 (centres unmarked) [Compound 558] | 17 | 99
O=C(Nc1ccc(F)cc1)OC(c1ccc(C(F)(F)F)cc1)C1CCN(Cc2ccc(-c3csnn3)cc2)CC1 (centres unmarked) [Compound 559] | 17 | 97
O=C(Nc1cc(F)cc(F)c1)OC(c1ccc(C(F)(F)F)cc1)C1CCN(Cc2ccc(-c3csnn3)cc2)CC1 (centres unmarked) [Compound 560] | 33 | 96
O=C(Nc1ccc(Cl)cc1)OC(c1ccc(C(F)(F)F)cc1)C1CCN(Cc2ccc(Oc3nsnc3Cl)cc2)CC1 (centres unmarked) [Compound 561] | 50 | 100
O=C(Nc1cc(F)cc(F)c1)OC(c1ccc(C(F)(F)F)cc1)C1CCN(Cc2ccc(NC3=NCCO3)cc2)CC1 (centres unmarked) [Compound 563] | 0 | 96
CCn1nnc(-c2ccc(CN3CCC(C(OC(=O)Nc4ccc(Cl)cc4)c4ccccc4)CC3)cc2)n1 (centres unmarked) [Compound 564] | 100 | 100
CCn1nnc(-c2ccc(CN3CCC(C(OC(=O)Nc4ccc(C(F)(F)F)cc4)c4ccccc4)CC3)cc2)n1 (centres unmarked) [Compound 565] | 100 | 100
CCn1nnc(-c2ccc(CN3CCC(C(OC(=O)Nc4cc(F)cc(C(F)(F)F)c4)c4ccccc4)CC3)cc2)n1 (centres unmarked) [Compound 566] | 100 | 100
CCn1nnc(-c2ccc(CN3CCC(C(OC(=O)Nc4ccc(Cl)cc4)c4ccccc4Cl)CC3)cc2)n1 (centres unmarked) [Compound 567] | 100 | 100
CCn1nnc(-c2ccc(CN3CCC(C(OC(=O)Nc4ccc(Cl)c(Cl)c4)c4ccccc4Cl)CC3)cc2)n1 (centres unmarked) [Compound 568] | 100 | 100
CCn1nnc(-c2ccc(CN3CCC(C(OC(=O)Nc4ccc(F)c(F)c4)c4ccccc4Cl)CC3)cc2)n1 (centres unmarked) [Compound 569] | 100 | 100
CCn1nnc(-c2ccc(CN3CCC(C(OC(=O)Nc4cc(F)cc(F)c4)c4ccccc4Cl)CC3)cc2)n1 (centres unmarked) [Compound 570] | 100 | 100
CCn1nnc(-c2ccc(CN3CCC(C(OC(=O)Nc4ccc(C(F)(F)F)cc4)c4ccccc4Cl)CC3)cc2)n1 (centres unmarked) [Compound 571] | 100 | 100
CCn1nnc(-c2ccc(CN3CCC(C(OC(=O)Nc4ccc(Cl)cc4)c4ccc(Cl)c(Cl)c4)CC3)cc2)n1 (centres unmarked) [Compound 572] | 100 | 100
CCn1nnc(-c2ccc(CN3CCC(C(OC(=O)Nc4ccc(Cl)c(Cl)c4)c4ccc(Cl)c(Cl)c4)CC3)cc2)n1 (centres unmarked) [Compound 573] | 100 | 100
CCn1nnc(-c2ccc(CN3CCC(C(OC(=O)Nc4ccc(F)c(F)c4)c4ccc(Cl)c(Cl)c4)CC3)cc2)n1 (centres unmarked) [Compound 574] | 100 | 100
CCn1nnc(-c2ccc(CN3CCC(C(OC(=O)Nc4cc(F)cc(F)c4)c4ccc(Cl)c(Cl)c4)CC3)cc2)n1 (centres unmarked) [Compound 575] | 100 | 100
CCn1nnc(-c2ccc(CN3CCC(C(OC(=O)Nc4ccc(C(F)(F)F)cc4)c4ccc(Cl)c(Cl)c4)CC3)cc2)n1 (centres unmarked) [Compound 576] | 100 | 100
CCn1nnc(-c2ccc(CN3CCC(C(OC(=O)Nc4ccc(Cl)cc4)c4cc(Cl)cc(Cl)c4)CC3)cc2)n1 (centres unmarked) [Compound 577] | 100 | 100
CCn1nnc(-c2ccc(CN3CCC(C(OC(=O)Nc4ccc(Cl)c(Cl)c4)c4cc(Cl)cc(Cl)c4)CC3)cc2)n1 (centres unmarked) [Compound 578] | 100 | 100
CCn1nnc(-c2ccc(CN3CCC(C(OC(=O)Nc4ccc(F)c(F)c4)c4cc(Cl)cc(Cl)c4)CC3)cc2)n1 (centres unmarked) [Compound 579] | 100 | 100

SMILES | Percent Mortality [%] | Percent Growth Inhibition [%]
CCn1nnc(-c2ccc(CN3CCC(C(OC(=O)Nc4cc(F)cc(F)c4)c4cc(Cl)cc(Cl)c4)CC3)cc2)n1 (centres unmarked) [Compound 580] | 100 | 100
CCn1nnc(-c2ccc(CN3CCC(C(OC(=O)Nc4ccc(C(F)(F)F)cc4)c4cc(Cl)cc(Cl)c4)CC3)cc2)n1 (centres unmarked) [Compound 581] | 100 | 100
CCn1nnc(-c2ccc(CN3CCC(C(OC(=O)Nc4ccc(Cl)cc4)c4cccc(F)c4)CC3)cc2)n1 (centres unmarked) [Compound 582] | 100 | 100
CCn1nnc(-c2ccc(CN3CCC(C(OC(=O)Nc4ccc(Cl)c(Cl)c4)c4cccc(F)c4)CC3)cc2)n1 (centres unmarked) [Compound 583] | 100 | 100
CCn1nnc(-c2ccc(CN3CCC(C(OC(=O)Nc4ccc(F)c(F)c4)c4cccc(F)c4)CC3)cc2)n1 (centres unmarked) [Compound 584] | 100 | 100
CCn1nnc(-c2ccc(CN3CCC(C(OC(=O)Nc4cc(F)cc(F)c4)c4cccc(F)c4)CC3)cc2)n1 (centres unmarked) [Compound 585] | 100 | 100
CCn1nnc(-c2ccc(CN3CCC(C(OC(=O)Nc4cccc(C(F)(F)F)c4)c4cccc(F)c4)CC3)cc2)n1 (centres unmarked) [Compound 586] | 100 | 100
CCn1nnc(-c2ccc(CN3CCC(C(OC(=O)Nc4ccc(C(F)(F)F)cc4)c4cccc(F)c4)CC3)cc2)n1 (centres unmarked) [Compound 587] | 100 | 100
CCn1nnc(-c2ccc(CN3CCC(C(OC(=O)Nc4ccc(Cl)cc4)c4ccc(F)c(F)c4)CC3)cc2)n1 (centres unmarked) [Compound 588] | 100 | 100
CCn1nnc(-c2ccc(CN3CCC(C(OC(=O)Nc4cc(F)cc(F)c4)c4ccc(F)c(F)c4)CC3)cc2)n1 (centres unmarked) [Compound 589] | 100 | 100
CCn1nnc(-c2ccc(CN3CCC(C(OC(=O)Nc4ccc(Cl)cc4)c4cc(F)cc(F)c4)CC3)cc2)n1 (centres unmarked) [Compound 590] | 100 | 100
CCn1nnc(-c2ccc(CN3CCC(C(OC(=O)Nc4ccc(Cl)c(Cl)c4)c4cc(F)cc(F)c4)CC3)cc2)n1 (centres unmarked) [Compound 591] | 100 | 100
CCn1nnc(-c2ccc(CN3CCC(C(OC(=O)Nc4cc(F)cc(F)c4)c4cc(F)cc(F)c4)CC3)cc2)n1 (centres unmarked) [Compound 593] | 100 | 100
CCn1nnc(-c2ccc(CN3CCC(C(OC(=O)Nc4ccc(C(F)(F)F)cc4)c4cc(F)cc(F)c4)CC3)cc2)n1 (centres unmarked) [Compound 594] | 100 | 100
CCn1nnc(-c2ccc(CN3CCC(C(OC(=O)Nc4ccc(Cl)cc4)c4ccc(C)cc4)CC3)cc2)n1 (centres unmarked) [Compound 595] | 100 | 100
CCn1nnc(-c2ccc(CN3CCC(C(OC(=O)Nc4ccc(Cl)c(Cl)c4)c4ccc(C)cc4)CC3)cc2)n1 (centres unmarked) [Compound 596] | 100 | 100
CCn1nnc(-c2ccc(CN3CCC(C(OC(=O)Nc4ccc(F)c(F)c4)c4ccc(C)cc4)CC3)cc2)n1 (centres unmarked) [Compound 597] | 100 | 100
CCn1nnc(-c2ccc(CN3CCC(C(OC(=O)Nc4cc(F)cc(F)c4)c4ccc(C)cc4)CC3)cc2)n1 (centres unmarked) [Compound 598] | 100 | 100
CCn1nnc(-c2ccc(CN3CCC(C(OC(=O)Nc4cccc(C(F)(F)F)c4)c4ccc(C)cc4)CC3)cc2)n1 (centres unmarked) [Compound 599] | 100 | 100
CCn1nnc(-c2ccc(CN3CCC(C(OC(=O)Nc4ccc(C(F)(F)F)cc4)c4ccc(C)cc4)CC3)cc2)n1 (centres unmarked) [Compound 600] | 100 | 100
CCn1nnc(-c2ccc(CN3CCC(C(OC(=O)Nc4ccc(Cl)cc4)c4ccc(OC)cc4)CC3)cc2)n1 (centres unmarked) [Compound 601] | 100 | 100
CCn1nnc(-c2ccc(CN3CCC(C(OC(=O)Nc4ccc(Cl)c(Cl)c4)c4ccc(OC)cc4)CC3)cc2)n1 (centres unmarked) [Compound 602] | 100 | 100
CCn1nnc(-c2ccc(CN3CCC(C(OC(=O)Nc4ccc(F)c(F)c4)c4ccc(OC)cc4)CC3)cc2)n1 (centres unmarked) [Compound 603] | 100 | 100
CCn1nnc(-c2ccc(CN3CCC(C(OC(=O)Nc4cc(F)cc(F)c4)c4ccc(OC)cc4)CC3)cc2)n1 (centres unmarked) [Compound 604] | 100 | 100
